In patent US6861044B2, “Radioiodinated sulfonated phenols and process therefore” (The Dow Chemical Company, priority 1998, dated 2005):
“And” between values parts separate entries of the source, which are not always exact repeats. Equal values may be shown once.

What was measured:
[1] = Two hour rat biodistribution after intrathecal administration; format: in vivo, Sprague-Dawley rats
Description: (§1) The radioiodinated HBS (^131I-HBS) solution (100 μL), prepared in Example 3, was injected […] into a tail vein of three Sprague-Dawley rats (180-220 g). After one hour, the animals were sacrificed and the tissues and organs of interest were removed and weighed. The amount of radioactivity in each organ was determined by counting the tissue sample with a sodium iodide detector coupled to a multi-channel analyzer. The counts in the tissues were compared to the average counts of three 100 μL aliquots of ^131I-HBS counted in the same manner. The percentage of dose in the bone was calculated by assuming the femur to represent 1/25 the weight of the total skeletal system. The blood dose was calculated by assuming that blood comprises 6.5% of the total body weight. Muscle dose was calculated by assuming that muscle comprises 43% of the total body weight.
An I-HBS solution was prepared as in Example 3. Twenty μL of this solution was injected intrathecally in two Sprague-Dawley rats (100-150 g). After two hours the rats were sacrificed and dissected. The amount of radio activity in various organs and tissues was determined as in Example 4.

[2] = Rat biodistribution 1 hour after tail vein injection; format: in vivo, Sprague-Dawley rats; conditions: for Activity in the thyroid / Radioactivity in / cleared from the body: rats
Description: as §1
The biodistribution of the radioiodinated tyramine prepared in Example 6 was determined as in Example 4 (using 2 rats).

[3] = biological target: T1, thyroxine-binding globulin (Homo sapiens, UniProt P05543); conditions: concentrations up to 0.2 mM; cited from earlier work
T1 sequence (P05543 21-415): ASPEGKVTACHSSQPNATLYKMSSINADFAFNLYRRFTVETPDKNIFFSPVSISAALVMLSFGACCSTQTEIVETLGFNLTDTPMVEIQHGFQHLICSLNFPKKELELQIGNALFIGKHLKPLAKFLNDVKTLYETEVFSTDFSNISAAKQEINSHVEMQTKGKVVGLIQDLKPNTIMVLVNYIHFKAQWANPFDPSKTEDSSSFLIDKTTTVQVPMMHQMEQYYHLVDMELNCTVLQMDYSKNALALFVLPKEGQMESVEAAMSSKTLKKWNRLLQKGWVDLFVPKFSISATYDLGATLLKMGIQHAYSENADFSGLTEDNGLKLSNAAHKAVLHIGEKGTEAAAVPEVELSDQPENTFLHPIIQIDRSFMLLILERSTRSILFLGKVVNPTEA

prealbumin = prealbumin (Homo sapiens, UniProt P02766); conditions: concentrations up to 0.2 mM; cited from earlier work
albumin = albumin (Homo sapiens, UniProt P02768); conditions: concentrations up to 0.2 mM; cited from earlier work
[4] = average of two rats, two hours after intrathecal administration of 20 μL
[5] = two hours after intrathecal administration, rats
[6] = 1 hour post injection, tail vein
[7] = average of three rats, 1 Hour After Injection, tail vein
[8] = individual rat, 1 Hour After Injection, tail vein
[9] = average of 2 rats, determined as in Example 4 (percent of dose, 1 hour post injection, tail vein)
[10] = individual rat, determined as in Example 4 (percent of dose, 1 hour post injection, tail vein)

albumin, sequence (P02768 25-609, species assumed): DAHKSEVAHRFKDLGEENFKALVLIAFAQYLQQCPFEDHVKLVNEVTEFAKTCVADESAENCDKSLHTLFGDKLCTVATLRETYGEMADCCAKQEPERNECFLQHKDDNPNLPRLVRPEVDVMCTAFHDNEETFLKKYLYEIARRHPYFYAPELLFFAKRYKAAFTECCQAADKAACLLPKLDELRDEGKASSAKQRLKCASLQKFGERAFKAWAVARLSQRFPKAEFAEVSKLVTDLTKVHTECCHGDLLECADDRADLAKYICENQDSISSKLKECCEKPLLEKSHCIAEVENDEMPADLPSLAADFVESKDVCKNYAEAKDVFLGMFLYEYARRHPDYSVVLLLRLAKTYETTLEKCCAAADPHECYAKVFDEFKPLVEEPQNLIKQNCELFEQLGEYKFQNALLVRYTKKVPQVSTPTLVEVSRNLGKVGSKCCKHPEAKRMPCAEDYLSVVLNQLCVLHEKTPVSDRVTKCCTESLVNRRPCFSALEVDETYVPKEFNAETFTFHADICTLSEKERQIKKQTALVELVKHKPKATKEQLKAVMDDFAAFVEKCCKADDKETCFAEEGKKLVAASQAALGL

Structure (SMILES): O=S(=O)([O-])c1ccc(O)c([131I])c1.[Na+] [^131I-HBS]
- % Injected Dose, Bladder [1, 4]: 0.3 % Injected Dose
- % Injected Dose, Blood [1, 4]: 0.7 % Injected Dose
- % Injected Dose, Bone [1, 4]: 1.3 % Injected Dose
- % Injected Dose, Brain [1, 4]: 1.6 % Injected Dose
- % Injected Dose, Caecum [1, 4]: 0.0 % Injected Dose
- % Injected Dose, Colon [1, 4]: 0.9 % Injected Dose
- % Injected Dose, Heart [1, 4]: 0.0 % Injected Dose
- % Injected Dose, Kidney [1, 4]: 0.3 % Injected Dose
- % Injected Dose, Liver [1, 4]: 0.2 % Injected Dose
- % Injected Dose, Lung [1, 4]: 0.0 % Injected Dose
- % Injected Dose, Muscle [1, 4]: 0.5 % Injected Dose
- % Injected Dose, Sm. Intestine [1, 4]: 0.5 % Injected Dose
- % Injected Dose, Spleen [1, 4]: 0.0 % Injected Dose
- % Injected Dose, Stomach [1, 4]: 0.3 % Injected Dose
- % Injected Dose, Thyroid [1, 4]: 0.0 % Injected Dose
- % Injected Dose, Urine ([1]; average of two rats, two hours after intrathecal administration of 20 μL, recovery of urine may have been less than quantitative): 88 % Injected Dose
- Clearance of radioactivity through the kidney [1, 5]: had cleared the kidney
- Radioactivity present in the thyroid [1, 5]: little or no radioactivity
- Activity in the urine ([2]; 1 hour post injection, all animals): Almost all the activity
- Activity in the thyroid [2, 6]: lack of activity
- Radioactivity in / cleared from the body [2, 6]: very little activity
- Percent Injected Dose, Heart, Average [2, 7]: 0.01 Percent Injected Dose
- Percent Injected Dose, Kidney, Average [2, 7]: 0.12 Percent Injected Dose
- Percent Injected Dose, Lg. Int., Average [2, 7]: 0.08 Percent Injected Dose
- Percent Injected Dose, Liver, Average [2, 7]: 0.06 Percent Injected Dose
- Percent Injected Dose, Lung, Average [2, 7]: 0.02 Percent Injected Dose
- Percent Injected Dose, Sm Int., Average [2, 7]: 1.10 Percent Injected Dose
- Percent Injected Dose, Spleen, Average [2, 7]: 0.00 Percent Injected Dose
- Percent Injected Dose, Stomach, Average [2, 7]: 0.29 Percent Injected Dose
- Percent Injected Dose, Tail, Average [2, 7]: 0.08 Percent Injected Dose
- Percent Injected Dose, Thyroid, Average [2, 7]: 0.00 Percent Injected Dose
- Percent Injected Dose, Blood, Average ([2]; average of three rats, 1 Hour After Injection, tail vein, blood taken as 6.5% of body weight): 0.16 Percent Injected Dose
- Percent Injected Dose, Bone, Average ([2]; average of three rats, 1 Hour After Injection, tail vein, femur taken as 1/25 of skeleton): 1.00 Percent Injected Dose
- Percent Injected Dose, Muscle, Average ([2]; average of three rats, 1 Hour After Injection, tail vein, muscle taken as 43% of body weight): 0.40 Percent Injected Dose
- Percent Injected Dose, Heart [2, 8]: 0.01 Percent Injected Dose (2×) and 0.02 Percent Injected Dose
- Percent Injected Dose, Kidney [2, 8]: 0.19 Percent Injected Dose and 0.10 Percent Injected Dose and 0.08 Percent Injected Dose
- Percent Injected Dose, Lg. Int. [2, 8]: 0.08 Percent Injected Dose and 0.12 Percent Injected Dose and 0.05 Percent Injected Dose
- Percent Injected Dose, Liver [2, 8]: 0.05 Percent Injected Dose and 0.08 Percent Injected Dose and 0.06 Percent Injected Dose
- Percent Injected Dose, Lung [2, 8]: 0.01 Percent Injected Dose and 0.03 Percent Injected Dose and 0.02 Percent Injected Dose
- Percent Injected Dose, Sm Int. [2, 8]: 1.51 Percent Injected Dose and 0.67 Percent Injected Dose and 1.24 Percent Injected Dose
- Percent Injected Dose, Spleen [2, 8]: 0.01 Percent Injected Dose (2×) and 0.00 Percent Injected Dose
- Percent Injected Dose, Stomach [2, 8]: 0.33 Percent Injected Dose and 0.31 Percent Injected Dose and 0.24 Percent Injected Dose
- Percent Injected Dose, Tail [2, 8]: 0.01 Percent Injected Dose and 0.16 Percent Injected Dose and 0.09 Percent Injected Dose
- Percent Injected Dose, Thyroid [2, 8]: 0.00 Percent Injected Dose
- Percent Injected Dose, Blood ([2]; individual rat, 1 Hour After Injection, tail vein, blood taken as 6.5% of body weight): 0.14 Percent Injected Dose and 0.18 Percent Injected Dose and 0.15 Percent Injected Dose
- Percent Injected Dose, Bone ([2]; individual rat, 1 Hour After Injection, tail vein, femur taken as 1/25 of skeleton): 0.37 Percent Injected Dose and 0.16 Percent Injected Dose
- Percent Injected Dose, Muscle ([2]; individual rat, 1 Hour After Injection, tail vein, muscle taken as 43% of body weight): 0.88 Percent Injected Dose and 0.38 Percent Injected Dose and 0.05 Percent Injected Dose

Structure (SMILES): O=S(=O)(O)c1cc(I)c(O)c(I)c1 [diiodophenolsulphonic acid, 3,5-diiodo-4-hydroxybenzenesulphonic acid]
- Displacement of triiodothyronine from thyroxine-binding globulin [3]: did not displace
- Displacement of thyroxine from prealbumin-binding sites (prealbumin): did selectively display thyroxine
- Displacement of triiodothyronine from albumin (albumin): did not displace

Structure (SMILES): NCCc1ccc(O)c([131I])c1 [radioiodinated tyramine]
- Activity in the thyroid [2, 6]: very little
- Radioactivity in / cleared from the body [2, 6]: most radioactivity had cleared the body
- Biodistribution, Blood, Average [2, 9]: 1.13
- Biodistribution, Bone, Average [2, 9]: 0.25
- Biodistribution, Heart, Average [2, 9]: 0.03
- Biodistribution, Kidney, Average [2, 9]: 0.26
- Biodistribution, Lg. Int., Average [2, 9]: 1.24
- Biodistribution, Liver, Average [2, 9]: 0.52
- Biodistribution, Lung, Average [2, 9]: 0.15
- Biodistribution, Muscle, Average [2, 9]: 1.09
- Biodistribution, Sm. Int., Average [2, 9]: 4.07
- Biodistribution, Spleen, Average [2, 9]: 0.01
- Biodistribution, Stomach, Average [2, 9]: 0.43
- Biodistribution, Tail, Average [2, 9]: 0.49
- Biodistribution, Thyroid, Average [2, 9]: 0.09
- Biodistribution, Blood [2, 10]: 1.19 and 1.06
- Biodistribution, Bone [2, 10]: 0.30 and 0.20
- Biodistribution, Heart [2, 10]: 0.03 and 0.02
- Biodistribution, Kidney [2, 10]: 0.26 and 0.25
- Biodistribution, Lg. Int. [2, 10]: 0.46 and 2.02
- Biodistribution, Liver [2, 10]: 0.46 and 0.57
- Biodistribution, Lung [2, 10]: 0.03 and 0.26
- Biodistribution, Muscle [2, 10]: 1.31 and 0.87
- Biodistribution, Sm. Int. [2, 10]: 3.47 and 4.67
- Biodistribution, Spleen [2, 10]: 0.01
- Biodistribution, Stomach [2, 10]: 0.37 and 0.48
- Biodistribution, Tail [2, 10]: 0.77 and 0.20
- Biodistribution, Thyroid [2, 10]: 0.12 and 0.07
